According to US20210254272A1, “TEXTILES HAVING ANTIMICROBIAL PROPERTIES” (Livinguard AG, priority 2015, published 2021):

Experiment: Leaching test: 100 g fabric soaked in 10 liters stagnant distilled water, 3 days (72 hours)
Format: physicochemical
Settings: for Leaching of active ingredients: exhaust 80° C. 60 min, cured 180° C. 2 min, post wash
Summary of the method: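 Test and control fabrics were soaked together in a closed jar. Leached substances in the water were then determined by standard analytical methods.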

## CCCC1COC(Cn2cncn2)(c2ccc(Cl)cc2Cl)O1 (centres unmarked) [Propiconazole, propiconazole]
0.2% each in mixture (o.w.f), exhaust 80° C., 60 min, curing 180° C., 2 min, unwashed
  Leaching of active ingredients (in ppm): 4 ppm
0.5% each in mixture (o.w.f), exhaust 80° C., 60 min, curing 180° C., 2 min, unwashed
  Leaching of active ingredients (in ppm): 6 ppm
1.0% each in mixture (o.w.f), exhaust 80° C., 60 min, curing 180° C., 2 min, unwashed
  Leaching of active ingredients (in ppm): 8 ppm
Exhaust + Wash + pad + Wash, exhaust 0.1% o.w.f. each in mixture, 1 gm/liter pad
  Leeching in ppm: 0.5 ppm
Exhaust + Wash + pad + Wash, exhaust 0.1% o.w.f. each in mixture, 5 gm/liter pad
  Leeching in ppm: 0.7 ppm
Exhaust + Wash + pad + Wash, exhaust 0.1% o.w.f. each in mixture, 10 gm/liter pad
  Leeching in ppm: 0.6 ppm
Exhaust + Wash + pad + Wash, exhaust 0.25% o.w.f. each in mixture, 1 gm/liter pad
  Leeching in ppm: 7 ppm
Exhaust + Wash + pad + Wash, exhaust 0.25% o.w.f. each in mixture, 5 gm/liter pad
  Leeching in ppm: 7 ppm
Exhaust + Wash + pad + Wash, exhaust 0.25% o.w.f. each in mixture, 10 gm/liter pad
  Leeching in ppm: 20 ppm
Exhaust + Wash + pad + Wash, exhaust 0.5 (% o.w.f) each in mixture, 1 gm/liter pad
  Leeching in ppm: 5 ppm
Exhaust + Wash + pad + Wash, exhaust 0.5 (% o.w.f) each in mixture, 5 gm/liter pad
  Leeching in ppm: 15 ppm
Exhaust + Wash + pad + Wash, exhaust 0.5 (% o.w.f) each in mixture, 10 gm/liter pad
  Leeching in ppm: 26 ppm
Exhaust + Wash + pad + Wash, exhaust 1.0% o.w.f. each in mixture, 1 gm/liter pad
  Leeching in ppm: 10 ppm
Exhaust + Wash + pad + Wash, exhaust 1.0% o.w.f. each in mixture, 5 gm/liter pad
  Leeching in ppm: 19 ppm
Exhaust + Wash + pad + Wash, exhaust 1.0% o.w.f. each in mixture, 10 gm/liter pad
  Leeching in ppm: 34 ppm
Exhaust + pad + Wash, exhaust 0.1% o.w.f. each in mixture, 1 gm/liter pad
  Leeching in ppm: 149 ppm
Exhaust + pad + Wash, exhaust 0.1% o.w.f. each in mixture, 5 gm/liter pad
  Leeching in ppm: 241 ppm
Exhaust + pad + Wash, exhaust 0.1% o.w.f. each in mixture, 10 gm/liter pad
  Leeching in ppm: 256 ppm
Exhaust + pad + Wash, exhaust 0.25% o.w.f. each in mixture, 1 gm/liter pad
  Leeching in ppm: 231 ppm
Exhaust + pad + Wash, exhaust 0.25% o.w.f. each in mixture, 5 gm/liter pad
  Leeching in ppm: 259 ppm
Exhaust + pad + Wash, exhaust 0.25% o.w.f. each in mixture, 10 gm/liter pad
  Leeching in ppm: 546 ppm
Exhaust + pad + Wash, exhaust 0.5 (% o.w.f) each in mixture, 1 gm/liter pad
  Leeching in ppm: 475 ppm
Exhaust + pad + Wash, exhaust 0.5 (% o.w.f) each in mixture, 5 gm/liter pad
  Leeching in ppm: 538 ppm
Exhaust + pad + Wash, exhaust 0.5 (% o.w.f) each in mixture, 10 gm/liter pad
  Leeching in ppm: 649 ppm
Exhaust + pad + Wash, exhaust 1.0% o.w.f. each in mixture, 1 gm/liter pad
  Leeching in ppm: 578 ppm
Exhaust + pad + Wash, exhaust 1.0% o.w.f. each in mixture, 5 gm/liter pad
  Leeching in ppm: 689 ppm
Exhaust + pad + Wash, exhaust 1.0% o.w.f. each in mixture, 10 gm/liter pad
  Leeching in ppm: 853 ppm
Exhaust + pad, exhaust 0.1% o.w.f. each in mixture, 1 gm/liter pad
  Leeching in ppm: 194 ppm
Exhaust + pad, exhaust 0.1% o.w.f. each in mixture, 5 gm/liter pad
  Leeching in ppm: 284 ppm
Exhaust + pad, exhaust 0.1% o.w.f. each in mixture, 10 gm/liter pad
  Leeching in ppm: 345 ppm
Exhaust + pad, exhaust 0.25% o.w.f. each in mixture, 1 gm/liter pad
  Leeching in ppm: 317 ppm
Exhaust + pad, exhaust 0.25% o.w.f. each in mixture, 5 gm/liter pad
  Leeching in ppm: 346 ppm
Exhaust + pad, exhaust 0.25% o.w.f. each in mixture, 10 gm/liter pad
  Leeching in ppm: 354 ppm
Exhaust + pad, exhaust 0.5 (% o.w.f) each in mixture, 1 gm/liter pad
  Leeching in ppm: 365 ppm
Exhaust + pad, exhaust 0.5 (% o.w.f) each in mixture, 5 gm/liter pad
  Leeching in ppm: 456 ppm
Exhaust + pad, exhaust 0.5 (% o.w.f) each in mixture, 10 gm/liter pad
  Leeching in ppm: 867 ppm
Exhaust + pad, exhaust 1.0% o.w.f. each in mixture, 1 gm/liter pad
  Leeching in ppm: 596 ppm
Exhaust + pad, exhaust 1.0% o.w.f. each in mixture, 5 gm/liter pad
  Leeching in ppm: 810 ppm
Exhaust + pad, exhaust 1.0% o.w.f. each in mixture, 10 gm/liter pad
  Leeching in ppm: 1456 ppm
Exhaust +Wash + pad, exhaust 0.1% o.w.f. each in mixture, 1 gm/liter pad
  Leeching in ppm: 89 ppm
Exhaust +Wash + pad, exhaust 0.1% o.w.f. each in mixture, 5 gm/liter pad
  Leeching in ppm: 154 ppm
Exhaust +Wash + pad, exhaust 0.1% o.w.f. each in mixture, 10 gm/liter pad
  Leeching in ppm: 232 ppm
Exhaust +Wash + pad, exhaust 0.25% o.w.f. each in mixture, 1 gm/liter pad
  Leeching in ppm: 184 ppm
Exhaust +Wash + pad, exhaust 0.25% o.w.f. each in mixture, 5 gm/liter pad
  Leeching in ppm: 215 ppm
Exhaust +Wash + pad, exhaust 0.25% o.w.f. each in mixture, 10 gm/liter pad
  Leeching in ppm: 321 ppm
Exhaust +Wash + pad, exhaust 0.5 (% o.w.f) each in mixture, 1 gm/liter pad
  Leeching in ppm: 369 ppm
Exhaust +Wash + pad, exhaust 0.5 (% o.w.f) each in mixture, 5 gm/liter pad
  Leeching in ppm: 413 ppm
Exhaust +Wash + pad, exhaust 0.5 (% o.w.f) each in mixture, 10 gm/liter pad
  Leeching in ppm: 578 ppm
Exhaust +Wash + pad, exhaust 1.0% o.w.f. each in mixture, 1 gm/liter pad
  Leeching in ppm: 469 ppm
Exhaust +Wash + pad, exhaust 1.0% o.w.f. each in mixture, 5 gm/liter pad
  Leeching in ppm: 574 ppm
Exhaust +Wash + pad, exhaust 1.0% o.w.f. each in mixture, 10 gm/liter pad
  Leeching in ppm: 657 ppm
Exhaust 60° C., solution dosage 1% o.w.f, process time 60 min
  Leaching of active ingredients (in ppm): 24 ppm
Exhaust 60° C., solution dosage 1% o.w.f, process time 90 min
  Leaching of active ingredients (in ppm): 12 ppm
Exhaust 60° C., solution dosage 1% o.w.f, process time 120 min
  Leaching of active ingredients (in ppm): 13 ppm
Exhaust 60° C., solution dosage 1% o.w.f, process time 180 min
  Leaching of active ingredients (in ppm): 13 ppm
Exhaust 60° C., solution dosage 1% o.w.f, process time 240 min
  Leaching of active ingredients (in ppm): 15 ppm
Mixture 0.2% o.w.f. each
  Leaching of active ingredients: 0.3 ppm
Mixture 0.5% o.w.f. each
  Leaching of active ingredients: 0.3 ppm
Mixture 1% o.w.f. each
  Leaching of active ingredients: 0.9 ppm
Exhaust 80° C., 1% o.w.f, 60 min, curing 170° C., curing dwell time 0.5 min
  Leaching of active ingredients (in ppm): 28 ppm
Exhaust 80° C., 1% o.w.f, 60 min, curing 170° C., curing dwell time 1.0 min
  Leaching of active ingredients (in ppm): 24 ppm
Exhaust 80° C., 1% o.w.f, 60 min, curing 170° C., curing dwell time 1.5 min
  Leaching of active ingredients (in ppm): 21 ppm
Exhaust 80° C., 1% o.w.f, 60 min, curing 170° C., curing dwell time 2.0 min
  Leaching of active ingredients (in ppm): 15 ppm
Exhaust 80° C., 1% o.w.f, 60 min, curing 170° C., curing dwell time 2.5 min
  Leaching of active ingredients (in ppm): 17 ppm
Exhaust 80° C., 1% o.w.f, 60 min, curing 170° C., curing dwell time 3.0 min
  Leaching of active ingredients (in ppm): 17 ppm
Exhaust 80° C., 1% o.w.f, 60 min, curing 180° C., curing dwell time 0.5 min
  Leaching of active ingredients (in ppm): 24 ppm
Exhaust 80° C., 1% o.w.f, 60 min, curing 180° C., curing dwell time 1.0 min
  Leaching of active ingredients (in ppm): 12 ppm
Exhaust 80° C., 1% o.w.f, 60 min, curing 180° C., curing dwell time 1.5 min
  Leaching of active ingredients (in ppm): 13 ppm
Exhaust 80° C., 1% o.w.f, 60 min, curing 180° C., curing dwell time 2.0 min
  Leaching of active ingredients (in ppm): 3 ppm
Exhaust 80° C., 1% o.w.f, 60 min, curing 180° C., curing dwell time 2.5 min
  Leaching of active ingredients (in ppm): 13 ppm
Exhaust 80° C., 1% o.w.f, 60 min, curing 180° C., curing dwell time 3.0 min
  Leaching of active ingredients (in ppm): 13 ppm
Exhaust 80° C., 1% o.w.f, 60 min, curing dwell time at 190° C. (title): 0.5 min
  Leaching of active ingredients (in ppm): 23 ppm
Exhaust 80° C., 1% o.w.f, 60 min, curing dwell time at 190° C. (title): 1.0 min
  Leaching of active ingredients (in ppm): 12 ppm
Exhaust 80° C., 1% o.w.f, 60 min, curing dwell time at 190° C. (title): 1.5 min
  Leaching of active ingredients (in ppm): 12 ppm
Exhaust 80° C., 1% o.w.f, 60 min, curing dwell time at 190° C. (title): 2.0 min
  Leaching of active ingredients (in ppm): 10 ppm
Exhaust 80° C., 1% o.w.f, 60 min, curing dwell time at 190° C. (title): 2.5 min
  Leaching of active ingredients (in ppm): 27 ppm
Exhaust 80° C., 1% o.w.f, 60 min, curing dwell time at 190° C. (title): 3.0 min
  Leaching of active ingredients (in ppm): 34 ppm
